According to PubChem BioAssay (NCI):
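Each compound was tested at five concentrations against cells in 96-well plates for 48 hours. GI50: concentration for 50% inhibition of growth. TGI denotes the concentration required for complete inhibition of growth.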

Columns and labels:
Experiment in all cases: NCI-60 cell line screen, 48 h
[1] = test system: MDA-N
[2] = test system: HS 578T breast
[3] = test system: MDA-MB-231 breast
[4] = test system: K-562 leukemia
[5] = test system: SN12C renal
[6] = test system: RXF 393 renal
[7] = test system: T-47D breast
[8] = test system: SK-MEL-28 melanoma
[9] = test system: NCI-H522 lung
[10] = test system: OVCAR-4 ovarian

Row | Structure (SMILES) | TGI [1] | TGI [2] | TGI [3] | TGI [4] | TGI [5] | TGI [6] | TGI [7] | TGI [8] | TGI [9] | TGI [10] | GI50 [2] | GI50 [4] | GI50 [9] | GI50 [10]
1 | COc1cccc(CCN2CCN(CCCc3ccccc3)CC2)c1 | > 100 µM | > 100 µM | > 100 µM | > 100 µM | > 100 µM | > 100 µM | > 100 µM | > 100 µM | 67.9 µM | > 100 µM |  |  |  | 
2 | O=C1C[C@@H](C(=O)OCc2ccccc2)NC(=O)C[C@@H](C(=O)OCc2ccccc2)NC(=O)C[C@@H](C(=O)OCc2ccccc2)N1 | > 100 µM | 72.3 µM | 70.9 µM | 21.8 µM | > 100 µM | 41.8 µM | > 100 µM | > 100 µM | > 100 µM | > 100 µM |  |  |  | 
3 | Cc1ccc(OCC2OC(n3cnc4c(Cl)nc(N)nc43)CC2Oc2ccc(C)cc2)cc1 (centres undefined) | > 100 µM | > 100 µM | > 100 µM | > 100 µM | > 100 µM | > 100 µM | > 100 µM | > 100 µM | 12.1 µM | 61.3 µM |  |  |  | 
4 | Cc1ccc(/C(O)=C/c2nc3ccccc3sc2=O)c(C)c1 | > 100 µM | > 100 µM | > 100 µM | > 100 µM | > 100 µM | 18.2 µM | > 100 µM | > 100 µM | 62.1 µM | 70.8 µM |  |  |  | 
5 | Cc1ccc([S@](=O)c2occc2C=O)cc1 | 15.1 µM | 36.1 µM | 24.2 µM | 4.25 µM | 27.7 µM | 26.3 µM | 7.11 µM | 9.02 µM | 31.6 µM | > 53.2 µM |  |  |  | 
6 | CC(NC(=O)C(NC(=O)CNC(=O)OC(C)(C)C)C(C)C)C(=O)Oc1c(Cl)c(Cl)c(Cl)c(Cl)c1Cl (centres undefined) | > 100 µM | 50.1 µM | 42 µM | > 100 µM | 42 µM | 44.6 µM | 62.4 µM | 71.8 µM | 45.2 µM | 60.9 µM |  |  |  | 
7 | OCC(O)C(O)C(O)C(O)c1nc2ccc(Cl)cc2[nH]1 (centres undefined) | > 100 µM | > 100 µM | > 100 µM | > 100 µM | > 100 µM | > 100 µM | > 100 µM | > 100 µM | > 100 µM | > 100 µM |  |  |  | 
8 | CC1C(=O)N(c2ccccc2)NC12CCCc1ccccc12 (centres undefined) | > 100 µM | > 100 µM | > 100 µM | > 100 µM | > 100 µM | > 100 µM | > 100 µM | > 100 µM | > 100 µM | > 100 µM |  |  |  | 
9 | NS(=O)(=O)c1ccc(/C=C/c2ccc(F)cc2)cc1 | > 100 µM | 77.7 µM | 50.7 µM | > 100 µM | > 100 µM | 46.8 µM | 57.6 µM | > 100 µM | 27.6 µM | > 100 µM | 23.7 µM | 14.9 µM | 4.81 µM | 34.4 µM
10 | OC1(c2ccccc2)CCN(Cc2c[nH]c3ccccc23)CC1 | > 100 µM | > 100 µM | > 100 µM | > 100 µM | > 100 µM | > 100 µM | > 100 µM | 56.9 µM | > 100 µM | > 100 µM |  |  |  | 
11 | CC(C)CNc1nc2ncnc(N)c2[nH]1 | > 100 µM | > 100 µM | > 100 µM | > 100 µM | > 100 µM | > 100 µM | > 100 µM | > 100 µM | > 100 µM | > 100 µM |  |  |  | 
